These results are taken from patent publication US20230075765A1, “PYRROLO[2,3-D]PYRIMIDINE DERIVATIVE TARGETING EGFR MUTATION, AS WELL AS THE PREPARATIVE METHOD AND THE USE THEREOF” (WEST CHINA HOSPITAL, SICHUAN UNIVERSITY, priority 2020, published 2023).

pIC50: −log10 of the molar value. Where two headings read alike, the source gives them in different places.

Test [1] concerns the target T1, EGFR (T790M, C797S, L858R) (Homo sapiens, UniProt P00533, C797S/L858R/T790M).
T1 construct: purchased BPS 40351
Put plainly: Kinase inhibition, Lantha Screen assay. In kind it is biochemical. The conditions noted are these: for Single-concentration inhibitory activity against EGFR (T790M, C7975, L858R), Mean (100% inhibition): compound concentration 2 nM; for pIC50: read-out: Inhibitory activity (IC50) on EGFR (T790M, C797S, L858R). The method, then:
According to relevant literature, the inhibitory activity of five kinases (EGFR, EGFR-LT, EGFR-LTC, BTK, JAK3) were tested. Note: EGFR, EGFR-LT, EGFR-LTC: wild-type EGFR, L858R/T790M (EGFR-LT), or L858R/T790M/C797S (EGFR-LTC) mutant protein. […]
1) The initial detection concentration of the compound is 10 μM, and the compound was prepared into a 100-fold concentration, namely 1000 μM. 95 μl of 100% DMSO was added to the first well of a 96-well plate, and then 10 μl of 10 mM compound solution was added to prepare a 1000 μM compound solution. 50 μl of […] compound solution prepared above was transferred to a 384-well Echo plate;
2) 50 μl of 100% DMSO was transferred to two empty wells as a control without compound and enzyme;
3) Echo 550 was used to transfer 100 nl of compound solution to a 384-well test plate. 2.3 Kinase reaction and termination
1) EGFR (T790M, C797S, L858R) was added to 1× kinase buffer to form 2× kinase solution;
2) 5 μl of the above 2× kinase solution was transferred to a 384-well reaction plate, and 1× kinase buffer was added to the negative control well, then incubated for 10 min at room temperature;
3) Fluorescein-PolyGT and ATP were added to 1× kinase buffer to form a 2× substrate solution;
4) 5 μl of the above 2× substrate solution was transferred to a 384-well reaction plate;
5) The 384-well reaction plate was incubated at room temperature for 30 min;
6) 2× mixed solution of antibody and EDTA was prepared, of which […] was added to the 384-well reaction plate to stop the reaction;
7) The plate was left at room temperature for 60 min.
Percent inhibition=(max−Lantha signal)/(max−min)*100
“min” is the reading of the control well without enzyme; “max” is the reading of DMSO control well. 3) The data were imported into MS Excel, and IC50 results were subjected to curve fitting by using XLFit excel add-in version 5.4.0.8:
(§1) Fitting formula: Y=Bottom+(Top−Bottom)/(1+(IC50/X)^HillSlope)

The next test concerns H460 cells. The test is described as follows: Inhibition of cell proliferation, CCK8 method. Conditions: 48 h, read-out: Inhibitory activity (IC50) against H460. It counts as cell-based, human. Here is the method: (§2) Compounds 1-9 of the present invention were respectively weighed and dissolved in 1 ml of dimethyl sulfoxide (DMSO), to prepare a 10 mM drug solution, which was stored in a refrigerator at −20° C. in the dark after packaging. The stock solution was diluted with the corresponding culture medium to the required concentration just before the experiment.
(§3) HBE cells and BEAS-2B cells are normal lung bronchial epithelial cell lines, and both cells were cultured in DMEM high glucose medium (supplemented with 10% fetal bovine serum and 1% double antibody) to the logarithmic growth phase; H460 cells, A549 cells, H1975 cells and HCC827 cells are lung cancer cell lines, and all of them were cultured in RPMI1640 medium (supplemented with 10% fetal bovine serum and 1% double antibody) to the logarithmic growth phase. Among them, H1975 cells and HCC827 cells are EGFR mutant cells.
(§4) When the cells were cultured to 90% of the growth density, the cells were digested with 0.25% trypsin to prepare a single cell suspension. The cells were counted, and then seeded in a 96-well plate at a density of 5000 cells/well, 100 μl for each well. The culture plate was moved into a CO2 incubator and incubated for 24 h at 37° C. and 5% CO2. Compounds at different concentrations were added to each well, 5 replicate wells for each concentration, and the cells were treated with the compounds for 48 hours. CCK8 detection reagent was added to each well according to the operation manual, and then the plate was further incubated for 1 h before terminating the culture. 450 nm wavelength was chosen, and the absorbance value of each well was adjusted on the microplate ELISA analyzer. The result was recorded. […] was taken as the horizontal axis, and absorbance as the vertical axis to plot a curve. The half inhibitory concentration (IC50) was calculated by Bliss method. Each experiment was repeated at least 3 times.
(§5) Normal lung cell lines and different lung cancer cell lines were selected for experiments. Amongst, the compound with high anti-cancer activity was screened, whose anti-tumor activity was further studied.
(Tetrazolium assays rely on reduction of a dye to a coloured formazan, in cell work by metabolically active cells.)

The next test deals with A549 cells. Put plainly: Inhibition of cell proliferation, CCK8 method. It counts as cell-based, human. Conditions: A549 lung adenocarcinoma cells, 48 h, read-out: Inhibitory activity (IC50) against A549. The method, then:
as §2, §3, §4, §5

The test system of the next test is BEAS-2B cells. The test is described as follows: Inhibition of cell proliferation, CCK8 method. It counts as cell-based, human. The conditions noted are these: BEAS-2B normal bronchial epithelial cells, 48 h, read-out: Inhibitory activity (IC50) against BEAS-2B. The method, then: as §2, §3, §4, §5
The target of a further test is T2, EGFR (Homo sapiens, UniProt P00533).
T2 construct: purchased Carna 14-531
T2 sequence (P00533 25-1210): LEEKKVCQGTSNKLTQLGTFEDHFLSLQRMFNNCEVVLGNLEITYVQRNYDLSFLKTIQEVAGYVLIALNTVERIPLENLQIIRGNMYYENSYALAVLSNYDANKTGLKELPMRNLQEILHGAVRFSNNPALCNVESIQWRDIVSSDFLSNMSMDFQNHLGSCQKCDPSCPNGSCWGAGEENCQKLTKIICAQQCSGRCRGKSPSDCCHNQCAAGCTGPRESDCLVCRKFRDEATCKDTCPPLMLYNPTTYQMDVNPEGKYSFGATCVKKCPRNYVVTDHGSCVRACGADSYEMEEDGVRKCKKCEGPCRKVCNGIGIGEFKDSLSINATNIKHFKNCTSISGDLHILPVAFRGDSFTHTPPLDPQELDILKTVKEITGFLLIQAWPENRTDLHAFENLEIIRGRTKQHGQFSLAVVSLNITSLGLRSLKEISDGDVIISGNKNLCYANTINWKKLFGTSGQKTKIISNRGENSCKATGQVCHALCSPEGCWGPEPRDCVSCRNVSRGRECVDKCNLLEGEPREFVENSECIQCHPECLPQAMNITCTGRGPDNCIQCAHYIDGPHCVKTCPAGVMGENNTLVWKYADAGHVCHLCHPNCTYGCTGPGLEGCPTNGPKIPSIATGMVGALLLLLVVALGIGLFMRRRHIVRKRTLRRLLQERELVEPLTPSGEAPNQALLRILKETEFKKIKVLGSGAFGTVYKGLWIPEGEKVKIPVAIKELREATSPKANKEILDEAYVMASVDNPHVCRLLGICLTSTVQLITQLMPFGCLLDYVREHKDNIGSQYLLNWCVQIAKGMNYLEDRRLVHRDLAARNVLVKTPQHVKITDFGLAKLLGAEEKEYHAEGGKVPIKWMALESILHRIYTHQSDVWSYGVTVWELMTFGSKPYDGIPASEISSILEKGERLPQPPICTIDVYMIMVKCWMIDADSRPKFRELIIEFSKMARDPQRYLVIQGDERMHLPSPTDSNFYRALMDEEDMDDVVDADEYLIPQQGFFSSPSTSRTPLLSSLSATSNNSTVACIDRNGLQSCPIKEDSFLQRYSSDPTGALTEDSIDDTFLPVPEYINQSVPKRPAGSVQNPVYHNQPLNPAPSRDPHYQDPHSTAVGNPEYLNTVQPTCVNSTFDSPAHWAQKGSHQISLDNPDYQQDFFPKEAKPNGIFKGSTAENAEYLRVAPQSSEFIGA
Put plainly: Kinase inhibition, mobility shift assay. It counts as biochemical. The conditions noted are these: for Single-concentration inhibitory activity against EGFR, Mean (100% inhibition): compound concentration 80 nM; for pIC50: wild-type EGFR, read-out: Inhibitory activity (IC50) on EGFR. The method, then: (§6) According to relevant literature, the inhibitory activity of five kinases (EGFR, EGFR-LT, EGFR-LTC, BTK, JAK3) were tested. Note: EGFR, EGFR-LT, EGFR-LTC: wild-type EGFR, L858R/T790M (EGFR-LT), or L858R/T790M/C797S (EGFR-LTC) mutant protein.
(§7) 95 μl of 100% DMSO was added to the first well of a 96-well plate, and then 5 μl of 10 mM compound solution was added to prepare a 500 μM compound solution.
(§8) 10 μl solution was taken out from the 50-fold concentration of compound solution (prepared and tested), and transferred to a 96-well plate, to which was added 90 μl kinase buffer to prepare a 5-fold concentration of compound solution.
(§9) 5 μl solution was taken out from the 5-fold concentration of compound solution in a 96-well plate, and transferred to a 384-well reaction plate. For example, the solution was transferred from well A1 of a 96-well plate to wells A1 and A2 of a 384-well plate, from well A2 of a 96-well plate to wells A3 and A4 of a 384-well plate, and so on.
(§10) 1) The kinase was added to 1× kinase buffer to form 2.5× kinase solution;
(§11) 2) 10 μl of the above 2.5× kinase solution was transferred to a 384-well reaction plate, and 1× kinase buffer was added to the negative control well, then incubated for 10 min at room temperature;
(§12) 3) FAM-labeled polypeptide and ATP were added to 1× kinase buffer to form a 2.5×substrate solution;
(§13) 5) The 384-well reaction plate was incubated at 28° C. for 60 min, to which was added 30 μl of stop solution to stop the reaction, and the model of biochemical incubator was SPX-100B-Z.
(§14) The conversion rate was read on CaliperEZ Reader.
(§15) 1) The conversion rate data were copied from CaliperEZ Reader II;
(§16) 2) The conversion rate was converted into the inhibition rate;
(§17) Percent inhibition=(max−conversion)/(max−min)*100
(§18) “min” is the reading of the control well without enzyme; “max” is the reading of DMSO control well.
(§19) 3) IC50 values were fitted by using XLFit excel add-in version 5.4.0.8.
as §1

Another test concerns the target T3, BTK (Homo sapiens, UniProt Q06187).
T3 construct: purchased Carna 08-180
The test is described as follows: Kinase inhibition, mobility shift assay. It counts as biochemical. The conditions noted are these: for Single-concentration inhibitory activity on BTK, Mean (100% inhibition): compound concentration 4 nM; for pIC50: read-out: Inhibitory activity (IC50) on BTK. Here is the method:
as §6, §7, §8, §9, §10, §11, §12, §13, §14, §15, §16, §17, §18, §19, §1

[2] abbreviates: Homo sapiens, NCI-H460, H460 large cell lung cancer cells.

T1 sequence (P00533 25-1210 T790M/C797S/L858R): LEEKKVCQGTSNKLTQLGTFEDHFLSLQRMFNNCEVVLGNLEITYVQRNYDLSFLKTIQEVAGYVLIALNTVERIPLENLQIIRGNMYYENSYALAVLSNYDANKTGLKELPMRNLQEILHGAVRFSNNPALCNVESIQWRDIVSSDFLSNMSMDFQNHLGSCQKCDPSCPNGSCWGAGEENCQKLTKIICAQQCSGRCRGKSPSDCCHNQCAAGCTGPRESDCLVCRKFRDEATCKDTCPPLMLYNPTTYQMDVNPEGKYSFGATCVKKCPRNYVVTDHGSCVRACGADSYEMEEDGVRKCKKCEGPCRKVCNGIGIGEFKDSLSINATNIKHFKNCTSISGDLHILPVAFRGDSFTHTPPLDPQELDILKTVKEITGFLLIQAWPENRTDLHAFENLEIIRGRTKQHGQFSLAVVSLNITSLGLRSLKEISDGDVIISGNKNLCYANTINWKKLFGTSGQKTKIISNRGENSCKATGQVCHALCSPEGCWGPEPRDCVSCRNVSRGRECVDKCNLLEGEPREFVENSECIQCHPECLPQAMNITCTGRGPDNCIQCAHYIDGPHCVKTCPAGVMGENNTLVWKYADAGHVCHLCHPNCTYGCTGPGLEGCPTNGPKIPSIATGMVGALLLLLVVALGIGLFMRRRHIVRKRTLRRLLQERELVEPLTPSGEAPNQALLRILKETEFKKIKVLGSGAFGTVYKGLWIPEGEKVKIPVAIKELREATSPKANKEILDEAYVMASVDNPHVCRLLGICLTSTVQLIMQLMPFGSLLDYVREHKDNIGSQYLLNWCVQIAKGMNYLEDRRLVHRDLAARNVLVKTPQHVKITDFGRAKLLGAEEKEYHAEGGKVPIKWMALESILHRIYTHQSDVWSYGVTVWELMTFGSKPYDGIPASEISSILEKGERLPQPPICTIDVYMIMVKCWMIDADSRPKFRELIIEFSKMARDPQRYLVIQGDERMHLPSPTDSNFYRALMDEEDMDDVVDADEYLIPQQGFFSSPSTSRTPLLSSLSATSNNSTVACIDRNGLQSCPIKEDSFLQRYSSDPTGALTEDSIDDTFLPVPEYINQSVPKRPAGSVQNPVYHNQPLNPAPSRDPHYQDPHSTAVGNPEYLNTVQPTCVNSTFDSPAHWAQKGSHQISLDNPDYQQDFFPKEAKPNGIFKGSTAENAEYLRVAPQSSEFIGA
T3 sequence (Q06187 whole entry): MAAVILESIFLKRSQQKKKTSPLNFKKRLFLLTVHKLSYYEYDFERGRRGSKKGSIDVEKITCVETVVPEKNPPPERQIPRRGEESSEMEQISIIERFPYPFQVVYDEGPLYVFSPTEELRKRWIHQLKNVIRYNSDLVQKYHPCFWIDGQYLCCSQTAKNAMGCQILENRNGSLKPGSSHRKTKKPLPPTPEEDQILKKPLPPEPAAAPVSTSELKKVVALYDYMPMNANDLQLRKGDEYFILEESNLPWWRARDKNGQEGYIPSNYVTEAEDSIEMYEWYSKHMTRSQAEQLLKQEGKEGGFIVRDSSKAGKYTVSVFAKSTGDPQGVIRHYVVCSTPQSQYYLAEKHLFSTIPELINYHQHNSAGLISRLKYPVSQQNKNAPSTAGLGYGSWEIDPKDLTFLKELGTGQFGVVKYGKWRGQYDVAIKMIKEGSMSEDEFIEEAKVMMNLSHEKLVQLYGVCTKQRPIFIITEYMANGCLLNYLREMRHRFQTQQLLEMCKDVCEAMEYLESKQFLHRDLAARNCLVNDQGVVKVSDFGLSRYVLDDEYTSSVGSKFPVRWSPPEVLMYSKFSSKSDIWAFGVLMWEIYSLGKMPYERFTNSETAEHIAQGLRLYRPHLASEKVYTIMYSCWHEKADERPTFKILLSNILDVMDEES

In the case of `C=CC(=O)Nc1cccc(Oc2nc(Nc3ccc(N4CCN(C)CC4)c([N+](=O)[O-])c3)nc3c2ccn3COC(=O)C(C)(C)C)c1` [Compound 7], the “Single-concentration inhibitory activity against EGFR (T790M, C7975, L858R), Mean (100% inhibition)” value in test [1] is 8.4 % inhibition. Further, the pIC50 in the test on H460 cells (setting [2]) is 5.33; with A549 cells (Homo sapiens), 5.51; in the test on BEAS-2B cells (Homo sapiens), 5.24. Moreover, the “Single-concentration inhibitory activity against EGFR, Mean (100% inhibition)” value at EGFR was 4.7 % inhibition. The “Single-concentration inhibitory activity on BTK, Mean (100% inhibition)” value on BTK was found to be 5.9 % inhibition.
In the case of `C=CC(=O)Nc1cccc(Oc2nc(Nc3ccc(N4CCN(C)CC4)c(N)c3)nc3[nH]ccc23)c1` [Compound 6], in test [1], the “Single-concentration inhibitory activity against EGFR (T790M, C7975, L858R), Mean (100% inhibition)” value came to 8.0 % inhibition. The pIC50 in test [1] is 6.33; with H460 cells (setting [2]), 4.57; in the test on A549 cells (Homo sapiens) it was 5.22; with BEAS-2B cells (Homo sapiens), 5.11; at EGFR, 7.19; on BTK, 7.96. The “Single-concentration inhibitory activity against EGFR, Mean (100% inhibition)” value on EGFR is given as 63 % inhibition. For the same compound, the “Single-concentration inhibitory activity on BTK, Mean (100% inhibition)” value on BTK is reported as 27 % inhibition.
On to `C=CC(=O)Nc1cccc(Oc2nc(Nc3ccc(N4CCN(C)CC4)c(OC)c3)nc3[nH]ccc23)c1` [Compound 4], for which the “Single-concentration inhibitory activity against EGFR (T790M, C7975, L858R), Mean (100% inhibition)” value in test [1] came out at 7.8 % inhibition. Also, the pIC50 was 5.85 in test [1]; 4.47 in the test with H460 cells (setting [2]); 4.69 in the test on A549 cells (Homo sapiens); 5.00 in the test on BEAS-2B cells (Homo sapiens); 6.66 on EGFR; 7.51 at BTK. In addition, the “Single-concentration inhibitory activity against EGFR, Mean (100% inhibition)” value on EGFR is 32 % inhibition. Also, on BTK, the “Single-concentration inhibitory activity on BTK, Mean (100% inhibition)” value is on record as 15 % inhibition.
Consider `C=CC(=O)Nc1cccc(Oc2nc(Nc3ccc(N4CCN(C)CC4)c([N+](=O)[O-])c3)nc3[nH]ccc23)c1` [Compound 5], for which, in test [1], the “Single-concentration inhibitory activity against EGFR (T790M, C7975, L858R), Mean (100% inhibition)” value was determined as 5.8 % inhibition. Also, the negative-log IC50 (pIC50) in test [1] was 5.65; with H460 cells (setting [2]), 5.10; in the test on A549 cells (Homo sapiens) it was 5.54; in the test with BEAS-2B cells (Homo sapiens), 5.43; at EGFR it was 6.84; on BTK, 7.37. Moreover, the “Single-concentration inhibitory activity against EGFR, Mean (100% inhibition)” value on EGFR worked out at 37 % inhibition. In addition, at BTK, the “Single-concentration inhibitory activity on BTK, Mean (100% inhibition)” value is given as 3.8 % inhibition.
Take `C=CC(=O)Nc1cccc(Oc2nc(Nc3ccc(N4CCN(C)CC4)c(I)c3)nc3c2ccn3COC(=O)C(C)(C)C)c1` [Compound 9]: the “Single-concentration inhibitory activity against EGFR (T790M, C7975, L858R), Mean (100% inhibition)” value in test [1] was determined as 2.1 % inhibition. The pIC50 with H460 cells (setting [2]) was 4.60; in the test on A549 cells (Homo sapiens), 5.02; in the test on BEAS-2B cells (Homo sapiens), 4.54. Moreover, the “Single-concentration inhibitory activity against EGFR, Mean (100% inhibition)” value at EGFR is given as 3.6 % inhibition. Moreover, the “Single-concentration inhibitory activity on BTK, Mean (100% inhibition)” value at BTK was determined as 3.3 % inhibition.
In the case of `C=CC(=O)Nc1cccc(Oc2nc(Nc3ccc(N4CCN(C)CC4)c(Cl)c3)nc3[nH]ccc23)c1` [Compound 2], the “Single-concentration inhibitory activity against EGFR (T790M, C7975, L858R), Mean (100% inhibition)” value in test [1] was 9.2 % inhibition. In addition, the pIC50 with H460 cells (H460 large cell lung cancer cells) was 5.31; in the test with A549 cells it was 5.77; in the test on BEAS-2B cells, 5.42. Also, at EGFR, the “Single-concentration inhibitory activity against EGFR, Mean (100% inhibition)” value is 86 % inhibition. At BTK, the “Single-concentration inhibitory activity on BTK, Mean (100% inhibition)” value is reported as 37 % inhibition.
Turning to `C=CC(=O)Nc1cccc(Oc2nc(Nc3ccc(N4CCN(C)CC4)c(N)c3)nc3c2ccn3COC(=O)C(C)(C)C)c1` [Compound 8], the “Single-concentration inhibitory activity against EGFR (T790M, C7975, L858R), Mean (100% inhibition)” value in test [1] came to 3.6 % inhibition. Moreover, the pIC50 was 5.12 in the test on H460 cells (setting [2]), 4.97 with A549 cells (Homo sapiens) and 5.02 in the test on BEAS-2B cells (Homo sapiens). On EGFR, the “Single-concentration inhibitory activity against EGFR, Mean (100% inhibition)” value was found to be 4.5 % inhibition. Besides, the “Single-concentration inhibitory activity on BTK, Mean (100% inhibition)” value at BTK was −2.9 % inhibition.

What is called pIC50 is −log10 of the IC50, conventionally taken in molar units.
